According to ChEMBL document CHEMBL1138453, “Synthesis and SAR of 1,2,3,4-tetrahydroisoquinolin-1-ones as novel G-protein-coupled receptor 40 (GPR40) antagonists” (Bioorg Med Chem Lett, 2009):

How the values were obtained:
[1] = test system: Rattus norvegicus; experiment: Clearance in iv dosed bile duct cannulated rat; format: ADME, organism-based; conditions: in vivo
[2] = Drug level in bile of iv dosed bile duct cannulated rat; format: ADME, organism-based; conditions: read-out: Drug uptake
[3] = Metabolic stability in dog liver microsomes assessed as clearance; format: ADME, Canis lupus familiaris, Microsome
[4] = test system: Canis familiaris; experiment: Clearance in iv dosed dog; format: ADME, organism-based, Canis lupus familiaris; conditions: in vivo
[5] = biological target: Free fatty acid receptor 1 (Homo sapiens, UniProt O14842); experiment: Antagonist activity at human GPR40 expressed HEK293 cells assessed as effect on intracellular calcium concentration by FLIPR assay; format: functional, cell-based
Sequence of Free fatty acid receptor 1 (O14842 whole entry): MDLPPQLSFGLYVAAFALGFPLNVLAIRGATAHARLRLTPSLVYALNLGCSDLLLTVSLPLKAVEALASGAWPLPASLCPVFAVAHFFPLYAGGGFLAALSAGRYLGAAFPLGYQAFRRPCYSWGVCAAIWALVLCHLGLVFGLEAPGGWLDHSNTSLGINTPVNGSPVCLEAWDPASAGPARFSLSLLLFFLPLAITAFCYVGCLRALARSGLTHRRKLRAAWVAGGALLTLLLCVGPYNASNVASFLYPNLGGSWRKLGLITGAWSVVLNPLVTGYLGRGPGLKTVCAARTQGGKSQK

[6] = test system: Liver microsomes; experiment: Metabolic stability in rat liver microsomes assessed as clearance; format: ADME, Microsome
[7] = test system: Rattus norvegicus; experiment: Clearance in iv dosed Sprague-Dawley rat; format: ADME, organism-based; conditions: in vivo
[8] = test system: Liver microsomes; experiment: (§1) Metabolic stability in human liver microsomes assessed as clearance; format: ADME, Microsome; conditions: microsomes
[9] = as §1; format: ADME, Microsome; conditions: liver microsomes
[10] = Permeability from apical to basolateral side of the human Caco-2 membrane; format: ADME, cell-based; conditions: read-out: permeability
[11] = Permeability from basolateral to apical side of the human Caco-2 membrane; format: ADME, cell-based; conditions: read-out: permeability
[12] = Volume of distribution in iv dosed Sprague-Dawley rat; format: ADME, organism-based; conditions: in vivo
[13] = Half life in iv dosed Sprague-Dawley rat; format: ADME, organism-based; conditions: in vivo

Row | IC50 [5] [µM] | clearance [6] [µL/min/mg] | clearance [8] [µL/min/mg] | further results | Compound
1 | – | – | – | clearance [1]: 32.7 mL/min/kg; dose excreted [2]: 64.6%; microsomal CLint [3]: 2.99 µL/min/mg; clearance [4]: 7.4 mL/min/kg | CCCN1C(=O)c2ccccc2[C@@H](C(=O)O)[C@@H]1c1ccc(Oc2cc(Cl)cc(Cl)c2)cc1
2 | 0.119 | 18 | – | clearance [7]: 3 mL/min/kg | CCCN1C(=O)c2ccccc2[C@@H](C(=O)O)[C@@H]1c1cc2ccccc2o1
3 | 0.01 | 274 | < 12 | clearance [1]: 84.5 mL/min/kg; dose excreted [2]: 22.9% | CCCN1C(=O)c2ccccc2[C@@H](C(=O)O)[C@@H]1c1ccc(O[C@H]2CC[C@@H](C)CC2)cc1
4 | 0.089 | < 14 | – | – | CCCN1C(=O)c2ccccc2[C@@H](C(=O)O)[C@@H]1c1ccc(Cl)c(Cl)c1
5 | 0.004 | 120 | – | – | O=C(O)[C@@H]1c2ccccc2C(=O)N(CC2CC2)[C@H]1c1ccc(Oc2ccccc2)cc1
6 | 0.01 | < 18 | – | – | CCC(CC)CN1C(=O)c2ccccc2[C@@H](C(=O)O)[C@@H]1c1nc2ccccc2s1
7 | 0.002 | 46 | 21 | – | CCCN1C(=O)c2ccccc2[C@@H](C(=O)O)[C@@H]1c1ccc(Oc2cc(C)cc(C)c2)cc1
8 | 0.029 | < 14 | < 8 | – | CCCN1C(=O)c2ccccc2[C@@H](C(=O)O)[C@@H]1c1ccc(Oc2ccc(C(F)(F)F)cn2)cc1
9 | 0.012 | 97 | < 9 | clearance [1]: 111 mL/min/kg; dose excreted [2]: 13.9% | CCN1C(=O)c2ccccc2[C@@H](C(=O)O)[C@@H]1c1ccc(Oc2ccccc2)cc1
10 | 0.02 | < 14.1 | – | microsomal CLint [9]: < 8 µL/min/mg; clearance [7]: 4.3 mL/min/kg; Papp A→B [10]: 12 ×10⁻⁶ cm/s; Papp B→A [11]: 18.7 ×10⁻⁶ cm/s; Vd [12]: 1.1 L/kg; half-life [13]: 5.4 h | CC[C@H](C)CN1C(=O)c2ccccc2[C@@H](C(=O)O)[C@@H]1c1cc2ccccc2o1
11 | 0.013 | < 14 | – | – | CC[C@H](C)CN1C(=O)c2ccccc2[C@@H](C(=O)O)[C@@H]1c1ccc(Cl)c(Cl)c1
12 | 2.1 | < 14 | < 8 | – | CCCN1C(=O)c2ccccc2[C@@H](C(=O)O)[C@@H]1c1ccc(OC)cc1
13 | – | – | – | clearance [1]: 136 mL/min/kg; dose excreted [2]: 69.9% | CCCN1C(=O)c2ccccc2[C@@H](C(=O)O)[C@@H]1c1cnc(O[C@H]2CC[C@@H](C)CC2)nc1
14 | 0.096 | < 16 | < 8 | clearance [7]: 82.8 mL/min/kg | CCCN1C(=O)c2ccccc2[C@@H](C(=O)O)[C@@H]1c1ccc(OCc2ccccc2)cc1
15 | 0.228 | < 14 | – | clearance [7]: 2.96 mL/min/kg | CCCN1C(=O)c2ccccc2[C@@H](C(=O)O)[C@@H]1c1cccc(Cl)c1
16 | 0.01 | 27 | – | – | CCC(CC)CN1C(=O)c2ccccc2[C@@H](C(=O)O)[C@@H]1c1ccc(Cl)c(Cl)c1
17 | 0.156 | 27 | – | – | CN1C(=O)c2ccccc2[C@@H](C(=O)O)[C@@H]1c1ccc(Oc2ccccc2)cc1
18 | 0.003 | < 14 | < 8 | – | CCCN1C(=O)c2ccccc2[C@@H](C(=O)O)[C@@H]1c1ccc(Oc2ccc(C)c(C)c2)cc1
